Laboratory results: the kinase profiling compilation of Christmann-Franck et al. (2016)

Columns and labels:
Test in all cases: SelectScreen, TR FRET
[1] = target: PRKAA1 PRKAB1 PRKAG1 (human) (UniProt P54619+Q13131+Q9Y478); settings: compound 0.1 µM
MAP3K8 (human) = MAP3K8 (human) (UniProt P41279)
PAK1 (human) = PAK1 (human) (UniProt Q13153)
GSK3A (human) = GSK3A (human) (UniProt P49840)
HCK (human) = HCK (human) (UniProt P08631)
MAPKAPK2 (human) = MAPKAPK2 (human) (UniProt P49137)
AKT3 (human) = AKT3 (human) (UniProt Q9Y243)
NUAK1 (human) = NUAK1 (human) (UniProt O60285)
AKT2 (human) = AKT2 (human) (UniProt P31751)
CSNK2A1 (human) = CSNK2A1 (human) (UniProt P68400)
ROCK1 (human) = ROCK1 (human) (UniProt Q13464)
Chain of ROCK1 (human) (Q13464 whole entry, looked up): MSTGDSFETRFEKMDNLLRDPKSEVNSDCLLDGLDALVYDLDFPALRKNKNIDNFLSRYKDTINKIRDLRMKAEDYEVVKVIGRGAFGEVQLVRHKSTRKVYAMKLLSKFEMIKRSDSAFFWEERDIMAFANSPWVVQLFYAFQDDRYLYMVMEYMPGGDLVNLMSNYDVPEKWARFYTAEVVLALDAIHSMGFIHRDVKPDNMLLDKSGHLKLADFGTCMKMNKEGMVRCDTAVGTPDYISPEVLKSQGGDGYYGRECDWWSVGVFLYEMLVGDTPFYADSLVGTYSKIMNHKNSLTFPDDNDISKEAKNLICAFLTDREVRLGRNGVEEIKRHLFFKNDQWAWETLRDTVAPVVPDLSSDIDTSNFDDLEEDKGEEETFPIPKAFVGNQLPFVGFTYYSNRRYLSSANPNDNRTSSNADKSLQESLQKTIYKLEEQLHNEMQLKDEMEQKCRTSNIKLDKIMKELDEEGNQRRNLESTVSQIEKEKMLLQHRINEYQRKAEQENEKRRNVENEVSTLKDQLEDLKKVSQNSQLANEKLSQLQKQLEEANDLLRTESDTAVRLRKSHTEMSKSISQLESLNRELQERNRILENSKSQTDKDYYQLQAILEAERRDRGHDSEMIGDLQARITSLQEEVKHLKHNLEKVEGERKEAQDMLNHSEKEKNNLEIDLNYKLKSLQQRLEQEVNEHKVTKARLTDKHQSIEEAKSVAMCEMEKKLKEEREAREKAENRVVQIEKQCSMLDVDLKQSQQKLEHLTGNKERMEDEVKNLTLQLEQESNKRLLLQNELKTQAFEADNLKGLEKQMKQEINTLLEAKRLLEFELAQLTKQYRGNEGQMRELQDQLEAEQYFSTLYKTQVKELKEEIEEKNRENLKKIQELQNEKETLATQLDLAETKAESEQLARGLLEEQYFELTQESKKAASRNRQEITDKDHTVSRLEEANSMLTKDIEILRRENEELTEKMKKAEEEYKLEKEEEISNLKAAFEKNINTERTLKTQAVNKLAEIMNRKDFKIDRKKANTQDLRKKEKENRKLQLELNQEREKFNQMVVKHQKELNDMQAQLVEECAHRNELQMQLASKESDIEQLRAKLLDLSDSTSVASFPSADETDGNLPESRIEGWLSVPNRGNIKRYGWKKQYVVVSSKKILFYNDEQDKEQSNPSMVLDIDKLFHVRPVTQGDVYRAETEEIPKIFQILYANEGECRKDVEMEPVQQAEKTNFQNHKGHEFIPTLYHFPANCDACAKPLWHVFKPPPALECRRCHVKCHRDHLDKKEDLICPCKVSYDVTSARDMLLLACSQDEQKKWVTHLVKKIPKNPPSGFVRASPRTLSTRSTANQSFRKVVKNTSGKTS

DAPK1 (human) = DAPK1 (human) (UniProt P53355)
CDC42BPA (human) = CDC42BPA (human) (UniProt Q5VT25)
Chain of CDC42BPA (human) (Q5VT25 whole entry, looked up): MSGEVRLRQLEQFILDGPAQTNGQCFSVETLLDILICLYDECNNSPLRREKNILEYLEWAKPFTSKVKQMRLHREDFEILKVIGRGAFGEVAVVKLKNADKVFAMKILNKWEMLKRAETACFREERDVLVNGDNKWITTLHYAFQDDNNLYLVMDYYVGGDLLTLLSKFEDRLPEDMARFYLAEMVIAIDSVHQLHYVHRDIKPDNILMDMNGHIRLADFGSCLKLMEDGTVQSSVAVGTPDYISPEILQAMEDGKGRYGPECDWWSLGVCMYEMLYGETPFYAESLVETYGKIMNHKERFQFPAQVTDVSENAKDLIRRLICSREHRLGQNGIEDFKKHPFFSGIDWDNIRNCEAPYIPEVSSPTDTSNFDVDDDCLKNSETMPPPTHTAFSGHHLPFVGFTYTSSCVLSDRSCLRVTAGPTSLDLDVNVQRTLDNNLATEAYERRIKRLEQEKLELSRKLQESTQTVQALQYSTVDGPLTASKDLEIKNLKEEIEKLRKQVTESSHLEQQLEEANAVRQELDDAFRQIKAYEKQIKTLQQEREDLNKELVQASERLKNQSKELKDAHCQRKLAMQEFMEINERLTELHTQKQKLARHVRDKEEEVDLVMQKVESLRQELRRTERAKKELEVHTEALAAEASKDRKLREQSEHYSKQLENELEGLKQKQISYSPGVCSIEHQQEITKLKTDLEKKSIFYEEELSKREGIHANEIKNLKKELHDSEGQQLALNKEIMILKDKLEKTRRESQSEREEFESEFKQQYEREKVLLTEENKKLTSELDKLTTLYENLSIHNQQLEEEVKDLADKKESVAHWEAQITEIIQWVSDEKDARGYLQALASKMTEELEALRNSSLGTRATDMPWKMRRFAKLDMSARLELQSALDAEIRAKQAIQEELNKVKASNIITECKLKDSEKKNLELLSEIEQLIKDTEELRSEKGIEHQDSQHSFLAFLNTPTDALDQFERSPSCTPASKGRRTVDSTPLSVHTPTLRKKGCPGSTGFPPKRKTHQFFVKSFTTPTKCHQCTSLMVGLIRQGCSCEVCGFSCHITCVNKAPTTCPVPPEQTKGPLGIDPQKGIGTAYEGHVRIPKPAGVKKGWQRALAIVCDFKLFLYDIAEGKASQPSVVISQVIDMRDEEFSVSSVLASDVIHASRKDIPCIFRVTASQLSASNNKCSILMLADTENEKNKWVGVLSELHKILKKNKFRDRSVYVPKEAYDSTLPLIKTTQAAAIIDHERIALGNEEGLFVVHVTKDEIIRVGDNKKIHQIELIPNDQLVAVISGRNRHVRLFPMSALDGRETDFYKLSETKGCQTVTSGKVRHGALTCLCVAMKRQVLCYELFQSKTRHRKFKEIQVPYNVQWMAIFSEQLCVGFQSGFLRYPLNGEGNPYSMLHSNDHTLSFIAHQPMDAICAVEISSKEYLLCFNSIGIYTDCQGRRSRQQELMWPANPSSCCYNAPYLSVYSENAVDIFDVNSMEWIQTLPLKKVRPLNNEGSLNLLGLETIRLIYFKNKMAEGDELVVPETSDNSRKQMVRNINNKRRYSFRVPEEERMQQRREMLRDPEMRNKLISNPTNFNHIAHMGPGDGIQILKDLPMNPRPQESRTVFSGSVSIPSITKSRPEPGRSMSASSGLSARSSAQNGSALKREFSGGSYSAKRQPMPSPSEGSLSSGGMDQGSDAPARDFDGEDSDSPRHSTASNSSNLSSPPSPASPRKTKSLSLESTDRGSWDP

BMX (human) = BMX (human) (UniProt P51813)
Chain of BMX (human) (P51813 whole entry, looked up): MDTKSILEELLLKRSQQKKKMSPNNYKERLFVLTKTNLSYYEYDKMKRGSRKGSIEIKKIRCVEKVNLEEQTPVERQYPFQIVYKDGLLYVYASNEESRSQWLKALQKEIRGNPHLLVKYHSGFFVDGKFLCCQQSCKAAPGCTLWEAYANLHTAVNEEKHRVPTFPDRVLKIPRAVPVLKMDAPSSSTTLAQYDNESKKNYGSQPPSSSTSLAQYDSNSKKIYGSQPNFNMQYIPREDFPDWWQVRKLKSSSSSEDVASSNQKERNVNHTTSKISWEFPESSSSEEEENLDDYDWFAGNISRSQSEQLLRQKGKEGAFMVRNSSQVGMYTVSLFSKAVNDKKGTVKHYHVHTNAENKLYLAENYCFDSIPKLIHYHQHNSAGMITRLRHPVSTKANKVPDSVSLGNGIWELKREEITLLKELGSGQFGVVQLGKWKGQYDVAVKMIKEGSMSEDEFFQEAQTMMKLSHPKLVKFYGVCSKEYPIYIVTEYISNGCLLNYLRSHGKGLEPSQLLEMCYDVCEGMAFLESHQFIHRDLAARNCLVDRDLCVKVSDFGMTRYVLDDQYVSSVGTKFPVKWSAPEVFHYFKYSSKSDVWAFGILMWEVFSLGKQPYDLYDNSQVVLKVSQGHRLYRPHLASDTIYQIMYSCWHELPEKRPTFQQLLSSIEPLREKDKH

LCK (human) = LCK (human) (UniProt P06239)
EPHA3 (human) = EPHA3 (human) (UniProt P29320)
JAK3 JH1 JH2 (human) = JAK3 JH1 JH2 (human) (UniProt P52333)
MAP2K6 (human) = MAP2K6 (human) (UniProt P52564)
Chain of MAP2K6 (human) (P52564 whole entry, looked up): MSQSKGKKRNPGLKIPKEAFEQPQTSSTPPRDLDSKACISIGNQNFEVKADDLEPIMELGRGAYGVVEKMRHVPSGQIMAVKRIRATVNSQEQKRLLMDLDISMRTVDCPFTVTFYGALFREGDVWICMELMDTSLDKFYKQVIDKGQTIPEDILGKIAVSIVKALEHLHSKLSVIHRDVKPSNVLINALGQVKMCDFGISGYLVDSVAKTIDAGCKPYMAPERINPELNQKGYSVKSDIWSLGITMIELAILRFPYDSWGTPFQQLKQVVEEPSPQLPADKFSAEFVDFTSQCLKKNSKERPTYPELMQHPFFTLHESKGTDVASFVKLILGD

NTRK3 (human) = NTRK3 (human) (UniProt Q16288)
PASK (human) = PASK (human) (UniProt Q96RG2)
IRAK1 (human) = IRAK1 (human) (UniProt P51617)
SPHK1 (human) = SPHK1 (human) (UniProt Q9NYA1)
EPHA8 (human) = EPHA8 (human) (UniProt P29322)
Chain of EPHA8 (human) (P29322 whole entry, looked up): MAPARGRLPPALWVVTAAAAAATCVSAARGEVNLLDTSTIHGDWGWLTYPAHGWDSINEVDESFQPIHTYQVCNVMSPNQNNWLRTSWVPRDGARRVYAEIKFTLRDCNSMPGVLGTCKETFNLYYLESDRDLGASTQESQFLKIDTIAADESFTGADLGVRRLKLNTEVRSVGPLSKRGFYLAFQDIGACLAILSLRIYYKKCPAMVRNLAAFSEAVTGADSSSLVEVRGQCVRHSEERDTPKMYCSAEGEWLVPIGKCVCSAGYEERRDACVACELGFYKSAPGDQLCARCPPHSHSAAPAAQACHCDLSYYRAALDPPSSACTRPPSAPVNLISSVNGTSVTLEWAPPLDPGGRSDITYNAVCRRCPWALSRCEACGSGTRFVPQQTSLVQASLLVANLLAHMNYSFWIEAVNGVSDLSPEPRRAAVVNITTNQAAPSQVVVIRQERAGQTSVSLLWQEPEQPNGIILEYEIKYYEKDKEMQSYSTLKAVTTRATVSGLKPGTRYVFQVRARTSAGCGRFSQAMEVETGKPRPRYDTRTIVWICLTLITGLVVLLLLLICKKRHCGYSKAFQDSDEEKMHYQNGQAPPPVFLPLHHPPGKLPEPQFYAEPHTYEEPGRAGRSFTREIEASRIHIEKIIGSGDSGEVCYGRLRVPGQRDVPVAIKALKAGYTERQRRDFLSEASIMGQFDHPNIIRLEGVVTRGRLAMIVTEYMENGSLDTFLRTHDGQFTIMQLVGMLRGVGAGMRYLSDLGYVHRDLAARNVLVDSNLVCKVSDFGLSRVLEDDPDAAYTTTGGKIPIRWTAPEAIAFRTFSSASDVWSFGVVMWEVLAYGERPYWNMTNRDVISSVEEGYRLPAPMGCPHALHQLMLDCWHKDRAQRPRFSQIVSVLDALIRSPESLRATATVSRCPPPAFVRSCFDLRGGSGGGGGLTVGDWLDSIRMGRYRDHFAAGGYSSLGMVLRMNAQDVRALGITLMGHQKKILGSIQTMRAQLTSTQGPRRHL

TEK (human) = TEK (human) (UniProt Q02763)
SYK (human) = SYK (human) (UniProt P43405)
SGK1 (human) = SGK1 (human) (UniProt O00141)
ITK (human) = ITK (human) (UniProt Q08881)
ADRBK1 (human) = ADRBK1 (human) (UniProt P25098)

Compound `Cn1cc(-c2cnc3ccc4ccc(CC(=O)NCc5ccccn5)cc4c(=O)c3c2)cn1` has an inhibition [1] of 2.1%, an inhibition (MAP3K8 (human); compound 0.1 µM) of 28% and an inhibition (MAP3K8 (human); compound 1.0 µM) of 23.4%. The inhibition (MAP3K8 (human); compound 10.0 µM) was 12.9%, the inhibition (PAK1 (human); compound 0.1 µM) was 19.6% and the inhibition (PAK1 (human); compound 1.0 µM) was 18.5%. It also gave an inhibition (PAK1 (human); compound 10.0 µM) of -12.1%, an inhibition (GSK3A (human); compound 0.1 µM) of 8.6% and an inhibition (GSK3A (human); compound 1.0 µM) of 12.5%. For the same compound, the inhibition (GSK3A (human); compound 10.0 µM) was 65.6%, the inhibition (HCK (human); compound 0.1 µM) was 16.7% and the inhibition (HCK (human); compound 1.0 µM) was 19.1%. It also gave an inhibition (HCK (human); compound 10.0 µM) of 51.8%, an inhibition (MAPKAPK2 (human); compound 0.1 µM) of 9.5% and an inhibition (MAPKAPK2 (human); compound 1.0 µM) of 7.8%. For the same compound, the inhibition (MAPKAPK2 (human); compound 10.0 µM) was 19.8%, the inhibition (AKT3 (human); compound 0.1 µM) was 11.3% and the inhibition (AKT3 (human); compound 1.0 µM) was 10.6%. It also gave an inhibition (AKT3 (human); compound 10.0 µM) of 14.6%, an inhibition (NUAK1 (human); compound 0.1 µM) of -10.5% and an inhibition (NUAK1 (human); compound 1.0 µM) of 13.6%. For the same compound, the inhibition (NUAK1 (human); compound 10.0 µM) was 63.9%, the inhibition (AKT2 (human); compound 0.1 µM) was 9.8% and the inhibition (AKT2 (human); compound 1.0 µM) was 11.3%. For the same compound, the inhibition (AKT2 (human); compound 10.0 µM) was 15.6%, the inhibition (CSNK2A1 (human); compound 0.1 µM) was 8.2% and the inhibition (CSNK2A1 (human); compound 1.0 µM) was 9.2%. For the same compound, the inhibition (CSNK2A1 (human); compound 10.0 µM) was 10.2%, the inhibition (ROCK1 (human); compound 0.1 µM) was 0% and the inhibition (ROCK1 (human); compound 1.0 µM) was 2.5%. It also gave an inhibition (ROCK1 (human); compound 10.0 µM) of 10.9%, an inhibition (DAPK1 (human); compound 0.1 µM) of 21.9% and an inhibition (DAPK1 (human); compound 1.0 µM) of 2.1%. It also gave an inhibition (DAPK1 (human); compound 10.0 µM) of 14.5%, an inhibition (CDC42BPA (human); compound 0.1 µM) of 6.3% and an inhibition (CDC42BPA (human); compound 1.0 µM) of 8.7%. It also gave an inhibition (CDC42BPA (human); compound 10.0 µM) of 8.6%, an inhibition (BMX (human); compound 0.1 µM) of 7.2% and an inhibition (BMX (human); compound 1.0 µM) of 7.7%. The inhibition (BMX (human); compound 10.0 µM) was -77.3%, the inhibition (LCK (human); compound 0.1 µM) was 27.2% and the inhibition (LCK (human); compound 1.0 µM) was 37.9%. For the same compound, the inhibition (LCK (human); compound 10.0 µM) was 77.3%, the inhibition (EPHA3 (human); compound 0.1 µM) was -1.7% and the inhibition (EPHA3 (human); compound 1.0 µM) was 5.2%. For the same compound, the inhibition (EPHA3 (human); compound 10.0 µM) was 16.4%, the inhibition (JAK3 JH1 JH2 (human); compound 0.1 µM) was 9.3% and the inhibition (JAK3 JH1 JH2 (human); compound 1.0 µM) was 6.1%. It also gave an inhibition (JAK3 JH1 JH2 (human); compound 10.0 µM) of 25.6%, an inhibition (MAP2K6 (human); compound 0.1 µM) of 9.7% and an inhibition (MAP2K6 (human); compound 1.0 µM) of 9.1%. It also gave an inhibition (MAP2K6 (human); compound 10.0 µM) of 7.4%, an inhibition (NTRK3 (human); compound 0.1 µM) of 18.8% and an inhibition (NTRK3 (human); compound 1.0 µM) of 34.5%. For the same compound, the inhibition (NTRK3 (human); compound 10.0 µM) was 77.1%, the inhibition (PASK (human); compound 0.1 µM) was 7.5% and the inhibition (PASK (human); compound 1.0 µM) was 5.9%. For the same compound, the inhibition (PASK (human); compound 10.0 µM) was 11.1%, the inhibition (IRAK1 (human); compound 0.1 µM) was 7.1% and the inhibition (IRAK1 (human); compound 1.0 µM) was 27.1%. For the same compound, the inhibition (IRAK1 (human); compound 10.0 µM) was 66.3%, the inhibition (SPHK1 (human); compound 0.1 µM) was -3.4% and the inhibition (SPHK1 (human); compound 1.0 µM) was -4.1%. It also gave an inhibition (SPHK1 (human); compound 10.0 µM) of -2.1%, an inhibition (EPHA8 (human); compound 0.1 µM) of 5.4% and an inhibition (EPHA8 (human); compound 1.0 µM) of 6.4%. It also gave an inhibition (EPHA8 (human); compound 10.0 µM) of 24.3%, an inhibition (TEK (human); compound 0.1 µM) of -0.9% and an inhibition (TEK (human); compound 1.0 µM) of 4.6%. The inhibition (TEK (human); compound 10.0 µM) was 45.3%, the inhibition (SYK (human); compound 0.1 µM) was 19.9% and the inhibition (SYK (human); compound 1.0 µM) was 13.2%. For the same compound, the inhibition (SYK (human); compound 10.0 µM) was 61.6%, the inhibition (SGK1 (human); compound 0.1 µM) was 10.9% and the inhibition (SGK1 (human); compound 1.0 µM) was 17.4%. The inhibition (SGK1 (human); compound 10.0 µM) was 49.8%, the inhibition (ITK (human); compound 0.1 µM) was 1.8% and the inhibition (ITK (human); compound 1.0 µM) was 3.8%. For the same compound, the inhibition (ITK (human); compound 10.0 µM) was 35.8%, the inhibition (ADRBK1 (human); compound 0.1 µM) was 9.4% and the inhibition (ADRBK1 (human); compound 1.0 µM) was 8.9%. It also gave an inhibition (ADRBK1 (human); compound 10.0 µM) of 10.4%.
